Assay results from patent US20210261621A1, “Preparation of Dilipid Polymixins and Use Thereof as Antimicrobial Adjuvants” (priority 2018, published 2021).
In brackets after ≈: the same amount, converted by molar mass. Positions of bridges follow the written chain, without caps; N, C: chain ends. Non-standard residues stand in square brackets, D forms with d. Residues, ends and D or L forms follow the SMILES beside them. *: point of attachment. Acetyl(1-adamantyl) = O=C(CC12CC3CC(CC(C3)C1)C2)*; Dab = NCC[C@H](N)C(=O)O

Experiments:
E. coli 94393 = type: cell-based, Escherichia coli; conditions: 94393
Description: (§1) We then addressed the possibility for the dilipid polymyxins to display enhanced antibacterial activity against colistin-resistant Gram-negative pathogens. […] The extended hydrophobic region of the dilipid polymyxin may provide additional hydrophobic interactions to the outer membrane of colistin-resistant organisms. Eight MDR colistin-resistant Gram-negative bacterial isolates were tested, including two E. coli isolates harboring the mcr-1 plasmid-encoded polymyxin resistance gene. We found no difference between the antibacterial activity of dilipid polymyxins and colistin against colistin-resistant Gram-negative bacteria (Table 3).
(§2) Bacterial strains were either obtained from the American Type Culture Collection (ATCC), Canadian National Intensive Care Unit (CAN-ICU) surveillance study or the Canadian Ward Surveillance (CANWARD) study. Strains from both CAN-ICU and CANWARD are isolates recovered from patients diagnosed with a presumed infectious disease that were admitted in a participating medical center across Canada. Efflux-deficient strain PAO200 (lacking MexAB-OprM efflux system) and PA0750 (lacking MexAB-OprM, MexCD-OprJ, MexEF-OprN, MexJK and MexXY efflux systems, and the outer membrane protein OpmH) were kindly gifted by Dr. Ayush Kumar (University of Manitoba).
(§3) The in vitro antibacterial activity of the compounds studied were assessed by broth microdilution susceptibility testing following CLSI guidelines. Bacterial cultures were grown overnight prior to the assay. The overnight grown cultures were diluted in saline to 0.5 McFarland turbidity, followed by 1:50 dilution in Mueller-Hinton broth (MHB) for inoculation to a final concentration of approximately 5×10^5 colony forming units/mL. Testing was performed on 96-well plates where the tested compounds were 2-fold serially diluted in MHB and incubated with equal volumes of bacterial inoculum at 37° C. for 18 h. […] Wells containing MHB with or without bacterial cells were used as positive or negative control, respectively.

E. coli 94474 = type: cell-based, Escherichia coli; conditions: 94474
Description: as §1, §2, §3

P. aeruginosa 91433 = type: cell-based, Pseudomonas aeruginosa; conditions: 91433
Description: as §1, §2, §3

P. aeruginosa 101243 = type: cell-based, Pseudomonas aeruginosa; conditions: 101243
Description: as §1, §2, §3

P. aeruginosa 114228 = type: cell-based, Pseudomonas aeruginosa; conditions: 114228
Description: as §1, §2, §3

MRSE CAN-ICU 61589 = type: cell-based, S. epidermidis; conditions: MRSE CAN-ICU 61589 (methicillin-resistant S. epidermidis)
From the text: as §2, §3

[1] = system: S. maltophilia CAN-ICU 62584; type: cell-based, Stenotrophomonas maltophilia; conditions: S. maltophilia CAN-ICU 62584
From the text: as §2, §3

[2] = system: E. coli CANWARD-2011 97615; type: cell-based, Escherichia coli
Summary of the method: (§4)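 Overnight cultures were standardized to 0.5 McFarland, diluted 1:50 into Mueller-Hinton broth for a final inoculum near 5×10^5 CFU/mL, then mixed with two-fold serially diluted compound. Plates were incubated 18 h at 37° C. following CLSI guidelines.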

E. faecalis ATCC 29212 = type: cell-based; conditions: E. faecalis ATCC 29212
From the text: as §2, §3

E. faecium ATCC 27270 = type: cell-based; conditions: E. faecium ATCC 27270
From the text: as §2, §3

S. pneumoniae ATCC 49619 = type: cell-based; conditions: S. pneumoniae ATCC 49619
From the text: as §2, §3

[3] = system: P. aeruginosa CANWARD-2011 96846; type: cell-based, Pseudomonas aeruginosa
Summary of the method: as §4

S. aureus ATCC 29213 = type: cell-based, Staphylococcus aureus; conditions: S. aureus ATCC 29213
From the text: as §2, §3

MRSA ATCC 33592 = type: cell-based, Staphylococcus aureus; conditions: MRSA ATCC 33592 (methicillin-resistant Staphylococcus aureus)
From the text: as §2, §3

pig erythrocytes = conditions: red cells of pig, 1 h, 512
Description: The ability of the compounds to lyse eukaryotic red blood cells was measured by the amount of hemoglobin released upon incubation with pig erythrocytes, following a published protocol [30]. Briefly, fresh pig blood (generously provided by Dr. Richard Hodges, Director of Animal Care and Veterinary Services of the University of Manitoba) drawn from a pig's antecubital vein was centrifuged at 1000 g for 5 min at 4° C., washed with phosphate-buffered saline (PBS) three times, and re-suspended in the same buffer, consecutively. Compounds at study were 2-fold serially diluted in PBS on a 96-well plate and mixed with equal volumes of erythrocyte solution. Post 1 h incubation at 37° C., the intact cells were pelleted by centrifugation at 1000 g for 5 min at 4° C. Resulting supernatant was then transferred to a new 96-well plate. The hemoglobin released was then measured via an EMax Plus microplate reader (Molecular Devices, USA) at 570 nm wavelength. Erythrocytes in PBS with or without 0.1% Triton X-100 were used as positive or negative control, respectively.

[4] = system: A. baumannii CAN-ICU 63169; type: cell-based, Acinetobacter baumannii; conditions: A. baumannii CAN-ICU 63169
From the text: as §2, §3

A. baumannii ATCC 17978 = type: cell-based, Acinetobacter baumannii; conditions: A. baumannii ATCC 17978
From the text: as §2, §3

A. baumannii AB031 = type: cell-based, Acinetobacter baumannii; conditions: A. baumannii AB031
From the text: as §2, §3

A. baumannii LAC-4 = type: cell-based, Acinetobacter baumannii; conditions: A. baumannii LAC-4
From the text: as §2, §3

A. baumannii 110193 = type: cell-based, Acinetobacter baumannii; conditions: A. baumannii 110193
From the text: as §2, §3

A. baumannii AB027 = type: cell-based, Acinetobacter baumannii; conditions: A. baumannii AB027
From the text: as §2, §3

Work on `CC(C)C[C@@H]1NC(=O)[C@@H](Cc2ccccc2)NC(=O)[C@H](CCN)NC(=O)[C@@H](NC(=O)[C@H](CCN)NC(=O)[C@@H](NC(=O)[C@H](CCNC(=O)CC23CC4CC(CC(C4)C2)C3)NC(=O)CC23CC4CC(CC(C4)C2)C3)[C@@H](C)O)CCNC(=O)[C@H]([C@@H](C)O)NC(=O)[C@H](CCN)NC(=O)[C@H](CCN)NC1=O` [Compound 4, Diadamantane Acetic Acid (Di-Adamantyl) Polymyxin] ({Acetyl(1-adamantyl)}-[Dab](Acetyl(1-adamantyl))T[Dab][Dab][Dab][dF]L[Dab][Dab]T; lactam 4-C) yielded an MIC (E. coli 94393) of 16 µg/mL (≈ 11.3 µM), an MIC (E. coli 94474) of 8 µg/mL (≈ 5.65 µM) and an MIC (P. aeruginosa 91433) of 8 µg/mL (≈ 5.65 µM). It also gave an MIC (P. aeruginosa 101243) of 64 µg/mL (≈ 45.2 µM), an MIC (P. aeruginosa 114228) of 8 µg/mL (≈ 5.65 µM) and an MIC (MRSE CAN-ICU 61589) of 16 µg/mL (≈ 11.3 µM). It also gave an MIC [1] of 64 µg/mL (≈ 45.2 µM), an MIC [2] of 64 µg/mL (≈ 45.2 µM) and an MIC (E. faecalis ATCC 29212) of 32 µg/mL (≈ 22.6 µM). The MIC (E. faecium ATCC 27270) was 16 µg/mL (≈ 11.3 µM), the MIC (S. pneumoniae ATCC 49619) was 32 µg/mL (≈ 22.6 µM) and the MIC [3] was 32 µg/mL (≈ 22.6 µM). For the same compound, the MIC (S. aureus ATCC 29213) was 16 µg/mL (≈ 11.3 µM), the MIC (MRSA ATCC 33592) was 32 µg/mL (≈ 22.6 µM) and the “% Hemolysis at 512 μg/mL of polymyxin” value (pig erythrocytes) was 3.2 ± 0.4%. The MIC [4] was 128 µg/mL (≈ 90.4 µM), the MIC (A. baumannii ATCC 17978) was 32 µg/mL (≈ 22.6 µM) and the MIC (A. baumannii AB031) was 16 µg/mL (≈ 11.3 µM). It also gave an MIC (A. baumannii LAC-4) of 16 µg/mL (≈ 11.3 µM), an MIC (A. baumannii 110193) of 32 µg/mL (≈ 22.6 µM) and an MIC (A. baumannii AB027) of 64 µg/mL (≈ 45.2 µM).
